Laboratory results published in BindingDB's records for patent US12391660 (Hangzhou Westan Pharmaceutical Technology Co., 2025).

Biological target: Transient receptor potential cation channel subfamily A member 1 (Homo sapiens, UniProt O75762)
Assay: FLIPR Assay of Inhibitory Activity on Human TRPA1
Description: Table 3.1: The cell analysis plate was placed in an FLIPR instrument ([…]), and the compound in the compound plate was added to the corresponding hole on the cell analysis plate (First addition) via an automatic program, and the calcium ion fluorescence signal was recorded to determine whether the compound had agonistic activity. After 10 minutes, CaCl2 (Second addition) was added a final concentration of 3 mM to each well to stimulate intracellular calcium flux signals. Ca++-dependent fluorescence signal was monitored continuously at 538 nm wavelength to analyze the inhibitory activity of the compounds.

Sequence of Transient receptor potential cation channel subfamily A member 1 (O75762 whole entry): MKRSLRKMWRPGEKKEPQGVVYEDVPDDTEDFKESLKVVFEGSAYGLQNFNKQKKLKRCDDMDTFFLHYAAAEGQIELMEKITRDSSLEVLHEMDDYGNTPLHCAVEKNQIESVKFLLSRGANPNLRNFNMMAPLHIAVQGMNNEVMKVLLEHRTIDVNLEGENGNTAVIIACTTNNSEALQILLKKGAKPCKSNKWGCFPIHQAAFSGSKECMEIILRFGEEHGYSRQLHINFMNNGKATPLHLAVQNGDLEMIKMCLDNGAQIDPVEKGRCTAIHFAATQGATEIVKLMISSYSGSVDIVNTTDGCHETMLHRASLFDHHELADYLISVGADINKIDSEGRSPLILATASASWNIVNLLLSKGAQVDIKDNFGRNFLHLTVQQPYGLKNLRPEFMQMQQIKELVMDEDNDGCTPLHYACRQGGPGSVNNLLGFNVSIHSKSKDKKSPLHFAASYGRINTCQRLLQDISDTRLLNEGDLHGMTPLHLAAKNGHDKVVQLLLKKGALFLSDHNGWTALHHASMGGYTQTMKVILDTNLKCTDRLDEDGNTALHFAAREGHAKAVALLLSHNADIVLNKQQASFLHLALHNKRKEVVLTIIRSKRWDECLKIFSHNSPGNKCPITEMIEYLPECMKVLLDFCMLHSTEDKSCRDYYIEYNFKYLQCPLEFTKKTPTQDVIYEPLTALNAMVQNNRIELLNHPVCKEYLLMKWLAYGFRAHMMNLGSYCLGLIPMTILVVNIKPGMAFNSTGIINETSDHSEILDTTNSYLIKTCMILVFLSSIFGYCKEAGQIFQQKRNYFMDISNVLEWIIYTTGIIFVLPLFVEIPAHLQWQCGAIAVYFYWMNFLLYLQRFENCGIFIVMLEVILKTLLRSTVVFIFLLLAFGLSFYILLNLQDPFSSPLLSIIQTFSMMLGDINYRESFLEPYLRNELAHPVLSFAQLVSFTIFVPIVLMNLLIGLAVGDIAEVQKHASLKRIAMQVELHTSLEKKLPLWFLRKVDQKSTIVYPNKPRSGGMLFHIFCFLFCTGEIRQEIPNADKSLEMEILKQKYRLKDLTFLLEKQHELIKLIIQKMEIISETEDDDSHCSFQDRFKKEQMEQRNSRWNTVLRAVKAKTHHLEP

Cn1cc(OC2(C(=O)N3CCN(c4ccc(C(F)(F)F)cn4)CC3)CCCC2)nc1C#N [US12391660, Compound 61]
IC50: 2870 nM

O=C(N1CCN(c2ccc(C(F)(F)F)nn2)CC1)C1(Nc2ccc([N+](=O)[O-])cc2)CCCC1 [US12391660, Compound 21]
IC50: 875 nM

CN(c1ccc(C#N)cc1)C1(C(=O)N2CCC(C(C)(C)C)CC2)CCCC1 [US12391660, Compound 44]
IC50: 280 nM

O=C(N1CCN(c2cccc(C(F)(F)F)n2)CC1)C1(Nc2ccc(Cl)cc2)CCCC1 [US12391660, Compound 20]
IC50: 56 nM
